Experimental data as given in patent US10538555B2, “Macrocyclic inhibitors of the PD-1/PD-L1 and CD80(B7-1)/PD-L1 protein/protein interactions” (BRISTOL-MYERS SQUIBB COMPANY, priority 2014, dated 2020).
Where two headings read alike, the source gives them in different places. Where a SMILES comes first, the peptide text is derived from it. Bridges are numbered along the chain shown (N, C = ends). [ ]: non-standard residue; d: D form. ξ: configuration not given here. Trp(βS-Me) = C[C@@H](c1c[nH]c2ccccc12)[C@H](N)C(=O)O; Phe(3,4,5-F3) = N[C@@H](Cc1cc(F)c(F)c(F)c1)C(=O)O; NMePhe(4-F) = CN[C@@H](Cc1ccc(F)cc1)C(=O)O; Hyp = O=C(O)[C@@H]1C[C@@H](O)CN1; NMeF = CN[C@@H](Cc1ccccc1)C(=O)O; NMeNle = CCCC[C@H](NC)C(=O)O; dPip = O=C(O)[C@H]1CCCCN1; hSer = N[C@@H](CCO)C(=O)O; NMeA = CN[C@@H](C)C(=O)O; Orn = NCCC[C@H](N)C(=O)O; Dab = NCC[C@H](N)C(=O)O; Dap = NC[C@H](N)C(=O)O; ξC = NC(CS)C(=O)O; Sar = CNCC(=O)O

Molecular target: T1, Human PD-L1/PD-1 (Homo sapiens, UniProt Q9NZQ7)
T1 construct: TVMV protease cleavage site (C); made in house; host or cells: HEK293T cells
Test: HTRF Human PD-L1/PD-1 binding assay (PD-1-Ig/PD-L1-His)
Settings: PD-L1-His 10 nM, PD-1-Ig 20 nM
Outline: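 HTRF read-out (665/620 nm ratio) after 30 min equilibration with Eu-cryptate anti-Ig mAb (1 nM) and APC anti-His mAb (20 nM). Peptides preincubated 15 min with PD-L1-His (10 nM), then PD-1-Ig (20 nM) added for 15 min.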

[1] = class symbol, read-out: HTRF Human PD-L1/PD-1 Binding Assay IC50 Range

T1 sequence (Q9NZQ7 with tags, fused parts or gaps): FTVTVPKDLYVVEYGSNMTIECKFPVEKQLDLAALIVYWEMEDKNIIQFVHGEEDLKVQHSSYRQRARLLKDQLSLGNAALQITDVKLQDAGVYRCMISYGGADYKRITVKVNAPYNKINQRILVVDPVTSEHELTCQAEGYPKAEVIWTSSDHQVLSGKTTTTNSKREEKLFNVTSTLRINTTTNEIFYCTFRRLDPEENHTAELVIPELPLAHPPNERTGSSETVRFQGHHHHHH

SMILES	IC50 [1]	IC50 (read-out: HTRF Human PD-L1/PD-1 Binding Assay IC50)
CCCC[C@H]1C(=O)N[C@@H](CC(N)=O)C(=O)N2CCC[C@H]2C(=O)N[C@@H](CO)C(=O)N[C@@H](CCO)C(=O)N2C[C@H](O)C[C@H]2C(=O)N[C@@H](Cc2c[nH]c3ccccc23)C(=O)N[C@@H](CCO)C(=O)N[C@@H](Cc2c[nH]c3ccccc23)C(=O)N(C)[C@@H](C)C(=O)N(C)[C@@H](C)C(=O)N[C@@H](CCCN)C(=O)NC(C(=O)NCC(N)=O)CSCC(=O)N[C@@H](Cc2ccc(O)cc2)C(=O)N1C (some centres unmarked) [Example 10219] ({CH2CO}-Y[NMeNle]NPS[hSer][Hyp]W[hSer]W[NMeA][NMeA][Orn][ξC]G-NH2; thioether N-14)	1000 to 10000 nM	
CCCC[C@H]1C(=O)N(C)[C@@H](CCCC)C(=O)N[C@@H](CC(C)C)C(=O)N[C@H](C(=O)NCC(N)=O)CSCC(=O)N[C@@H](Cc2ccc(O)cc2)C(=O)N(C)[C@@H](C)C(=O)N[C@@H](CC(N)=O)C(=O)N2CCC[C@H]2C(=O)N[C@@H](CN)C(=O)N[C@@H](CC(C)C)C(=O)N2C[C@H](O)C[C@H]2C(=O)N[C@@H]([C@@H](C)c2c[nH]c3ccccc23)C(=O)N[C@@H](CO)C(=O)N[C@@H](Cc2c[nH]c3ccccc23)C(=O)N1C [Example 10530] ({CH2CO}-Y[NMeA]NP[Dap]L[Hyp][Trp(βS-Me)]SW[NMeNle][NMeNle]LCG-NH2; thioether N-14)		15 nM
CCCC[C@H]1C(=O)N(C)[C@@H](CCCC)C(=O)N[C@@H](CCCNC(=N)N)C(=O)N[C@H](C(N)=O)CSCC(=O)N[C@@H](Cc2ccc(O)cc2)C(=O)N(C)[C@@H](C)C(=O)N[C@@H](CC(N)=O)C(=O)N2CCC[C@H]2C(=O)N[C@@H](CC(N)=O)C(=O)N[C@@H](CC(C)C)C(=O)N2C[C@H](O)C[C@H]2C(=O)N[C@@H]([C@@H](C)c2c[nH]c3ccccc23)C(=O)N[C@@H](CO)C(=O)N[C@@H](Cc2c[nH]c3ccccc23)C(=O)N1C [Example 10531] ({CH2CO}-Y[NMeA]NPNL[Hyp][Trp(βS-Me)]SW[NMeNle][NMeNle]RC-NH2; thioether N-14)	1 to 9.9 nM	
CCCC[C@H]1C(=O)N(C)[C@@H](CCCC)C(=O)N[C@@H](CC(C)C)C(=O)N[C@H](C(N)=O)CSCC(=O)N[C@@H](Cc2ccc(O)cc2)C(=O)N(C)[C@@H](C)C(=O)N[C@@H](CC(N)=O)C(=O)N2CCC[C@H]2C(=O)N[C@@H](CN)C(=O)N[C@@H](CC(C)C)C(=O)N2C[C@H](O)C[C@H]2C(=O)N[C@@H]([C@@H](C)c2c[nH]c3ccccc23)C(=O)N[C@@H](CO)C(=O)N[C@@H](Cc2c[nH]c3ccccc23)C(=O)N1C [Example 10532] ({CH2CO}-Y[NMeA]NP[Dap]L[Hyp][Trp(βS-Me)]SW[NMeNle][NMeNle]LC-NH2; thioether N-14)	1 to 9.9 nM	
CCCC[C@H]1C(=O)N(C)CC(=O)N[C@@H](CC(=O)O)C(=O)N[C@@H](C(C)C)C(=O)N(C)[C@@H](Cc2ccccc2)C(=O)N[C@@H](Cc2ccc(O)cc2)C(=O)N(C)CC(=O)N[C@@H]([C@@H](C)c2c[nH]c3ccccc23)C(=O)N[C@@H](Cc2ccc(O)cc2)C(=O)N[C@@H](CC(C)C)C(=O)N[C@H](C(=O)NCC(N)=O)CSCC(=O)N[C@@H](Cc2ccccc2)C(=O)N(C)[C@@H](Cc2ccccc2)C(=O)N1C [Example 10533] ({CH2CO}-F[NMeF][NMeNle][Sar]DV[NMeF]Y[Sar][Trp(βS-Me)]YLCG-NH2; thioether N-13)	1 to 9.9 nM	
CCCC[C@H]1C(=O)N(C)[C@@H](CCCC)C(=O)N[C@@H](CCCNC(=N)N)C(=O)N[C@H](C(=O)NCC(N)=O)CSCC(=O)N[C@@H](Cc2ccc(O)cc2)C(=O)N(C)[C@@H](C)C(=O)N[C@@H](CC(N)=O)C(=O)N2CCC[C@H]2C(=O)N[C@@H](CC(N)=O)C(=O)N[C@@H](CC(C)C)C(=O)N2C[C@H](O)C[C@H]2C(=O)N[C@@H]([C@@H](C)c2c[nH]c3ccccc23)C(=O)N[C@@H](CO)C(=O)N[C@@H](Cc2c[nH]c3ccccc23)C(=O)N1C [Example 10534] ({CH2CO}-Y[NMeA]NPNL[Hyp][Trp(βS-Me)]SW[NMeNle][NMeNle]RCG-NH2; thioether N-14)	1 to 9.9 nM	
CCCC[C@H]1C(=O)N2CCC[C@@H]2C(=O)N[C@@H](CC(=O)O)C(=O)N[C@@H](C(C)C)C(=O)N(C)[C@@H](Cc2ccccc2)C(=O)N[C@@H](Cc2ccc(O)cc2)C(=O)N2CCC[C@@H]2C(=O)N[C@@H]([C@@H](C)c2c[nH]c3ccccc23)C(=O)N[C@@H](Cc2ccc(O)cc2)C(=O)N[C@@H](CC(C)C)C(=O)N[C@H](C(=O)NCC(N)=O)CSCC(=O)N[C@@H](Cc2ccccc2)C(=O)N(C)[C@@H](Cc2ccccc2)C(=O)N1C [Example 10535] ({CH2CO}-F[NMeF][NMeNle][dP]DV[NMeF]Y[dP][Trp(βS-Me)]YLCG-NH2; thioether N-13)	1 to 9.9 nM	
CCCC[C@H]1C(=O)N[C@@H](CC(N)=O)C(=O)N2CCC[C@H]2C(=O)N[C@@H](Cc2c[nH]cn2)C(=O)N[C@@H](CCC(N)=O)C(=O)N2C[C@H](O)C[C@H]2C(=O)N[C@@H]([C@@H](C)c2c[nH]c3ccccc23)C(=O)N[C@@H](CO)C(=O)N[C@@H](Cc2c[nH]c3ccccc23)C(=O)N(C)[C@@H](C)C(=O)N(C)[C@@H](C)C(=O)N[C@@H](CC(C)C)C(=O)N[C@H](C(=O)NCC(N)=O)CSCC(=O)N[C@@H](Cc2ccc(O)cc2)C(=O)N1C [Example 10536] ({CH2CO}-Y[NMeNle]NPHQ[Hyp][Trp(βS-Me)]SW[NMeA][NMeA]LCG-NH2; thioether N-14)	1000 to 10000 nM	
CCCC[C@H]1C(=O)N[C@@H](CC(=O)O)C(=O)N2CCC[C@H]2C(=O)N[C@@H](Cc2c[nH]cn2)C(=O)N[C@@H](CCC(N)=O)C(=O)N2C[C@H](O)C[C@H]2C(=O)N[C@@H]([C@@H](C)c2c[nH]c3ccccc23)C(=O)N[C@@H](CO)C(=O)N[C@@H](Cc2c[nH]c3ccccc23)C(=O)N(C)[C@@H](C)C(=O)N(C)[C@@H](C)C(=O)N[C@@H](C)C(=O)N[C@H](C(=O)NCC(N)=O)CSCC(=O)N[C@@H](Cc2ccc(O)cc2)C(=O)N1C [Example 10539] ({CH2CO}-Y[NMeNle]DPHQ[Hyp][Trp(βS-Me)]SW[NMeA][NMeA]ACG-NH2; thioether N-14)	1000 to 10000 nM	
CCCC[C@H]1C(=O)N[C@@H](CC(N)=O)C(=O)N2CCC[C@H]2C(=O)N[C@@H](Cc2c[nH]cn2)C(=O)N[C@@H](CCC(=O)O)C(=O)N2C[C@H](O)C[C@H]2C(=O)N[C@@H]([C@@H](C)c2c[nH]c3ccccc23)C(=O)N[C@@H](CCN)C(=O)N[C@@H](Cc2c[nH]c3ccccc23)C(=O)N(C)[C@@H](C)C(=O)N(C)[C@@H](C)C(=O)N[C@@H](CC(C)C)C(=O)N[C@H](C(=O)NCC(N)=O)CSCC(=O)N[C@@H](Cc2ccc(O)cc2)C(=O)N1C [Example 10540] ({CH2CO}-Y[NMeNle]NPHE[Hyp][Trp(βS-Me)][Dab]W[NMeA][NMeA]LCG-NH2; thioether N-14)	1000 to 10000 nM	
CC(C)C[C@@H]1NC(=O)[C@H](Cc2ccc(O)cc2)NC(=O)[C@H](Cc2c[nH]c3ccccc23)NC(=O)[C@H]2CCCCN2C(=O)[C@H](Cc2ccc(O)cc2)NC(=O)[C@H](Cc2ccccc2)N(C)C(=O)[C@H](C(C)C)NC(=O)[C@H](CC(=O)O)NC(=O)[C@H]2CCCN2C(=O)[C@H](C)N(C)C(=O)[C@H](Cc2ccc(F)cc2)N(C)C(=O)[C@H](Cc2cc(F)c(F)c(F)c2)NC(=O)CSC[C@@H](C(=O)NCC(N)=O)NC1=O [Example 10542] ({CH2CO}-[Phe(3,4,5-F3)][NMePhe(4-F)][NMeA][dP]DV[NMeF]Y[dPip]WYLCG-NH2; thioether N-13)	1 to 9.9 nM	
